Measurements taken from patent US20260042755A1, “GPR6 INVERSE AGONISTS” (MapLight Therapeutics, Inc., priority 2022, published 2026).

Tests used:
GPR6 = molecular target: T1, GPR6 (Homo sapiens, UniProt P46095); assay: GPR6 antagonist functional cAMP assay (LANCE Ultra cAMP TR-FRET, CHO cells stably expressing GPR6); format: cell-based
T1 construct: expressed in transfected cells; host or cells: CHO cells
Procedure, shortened: (§1)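 Suspended cells were plated at 10,000 per well in Krebs-Ringer bicarbonate buffer containing 0.1% BSA and 150 μM Ro 20-1724, then treated with compounds for 45 min at 37 °C. Intracellular cAMP was then quantified by TR-FRET immunoassay.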

GPR3 = molecular target: T2, GPR3 (Homo sapiens, UniProt P46089); assay: GPR3 antagonist functional cAMP assay (LANCE Ultra cAMP TR-FRET, CHO cells stably expressing GPR3); format: cell-based
T2 construct: expressed in transfected cells; host or cells: CHO cells
T2 sequence (P46089 whole entry, species assumed): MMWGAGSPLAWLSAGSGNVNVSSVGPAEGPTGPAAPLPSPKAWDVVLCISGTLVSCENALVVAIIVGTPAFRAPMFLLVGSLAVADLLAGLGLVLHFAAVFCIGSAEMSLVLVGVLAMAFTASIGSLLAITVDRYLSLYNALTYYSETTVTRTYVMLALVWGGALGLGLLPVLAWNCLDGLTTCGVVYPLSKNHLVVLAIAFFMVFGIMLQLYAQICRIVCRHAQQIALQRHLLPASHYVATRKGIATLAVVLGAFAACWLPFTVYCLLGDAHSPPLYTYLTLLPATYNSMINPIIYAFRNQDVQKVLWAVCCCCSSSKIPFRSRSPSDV
Procedure, shortened: as §1

[1] = CHO cells stably expressing GPR6, cAMP assay (Example 24)
[2] = CHO cells stably expressing GPR3, cAMP assay (Example 24)
[3] = CHO cells stably expressing GPR6, cAMP assay
[4] = CHO cells stably expressing GPR3, cAMP assay
[5] = procedure as described in Example 24

T1 sequence (P46095 whole entry): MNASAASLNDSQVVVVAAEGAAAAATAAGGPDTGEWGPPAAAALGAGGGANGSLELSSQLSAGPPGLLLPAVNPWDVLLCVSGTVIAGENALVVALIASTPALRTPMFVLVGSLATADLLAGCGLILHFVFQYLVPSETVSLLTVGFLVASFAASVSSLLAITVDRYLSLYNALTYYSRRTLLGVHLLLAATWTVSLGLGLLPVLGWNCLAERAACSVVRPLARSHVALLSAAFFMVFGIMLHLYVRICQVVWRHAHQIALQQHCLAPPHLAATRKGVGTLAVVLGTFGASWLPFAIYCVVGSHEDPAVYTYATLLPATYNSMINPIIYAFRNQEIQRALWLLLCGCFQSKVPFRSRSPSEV

| SMILES | IC50 (GPR6; procedure of Example 24) | IC50 (GPR3; procedure of Example 24) | IC50 (GPR6; [1]) | IC50 (GPR3; [2]) | also measured |
| --- | --- | --- | --- | --- | --- |
| CC(C)(O)COc1cc2nc(-c3cnn(CF)c3)c(N3CCN(Cc4ccc(F)cc4F)CC3)nc2cn1 [Compound 798, 1-(3-{4-[(2,4-difluorophenyl)methyl]-1-piperazinyl}-2-[1-(fluoromethyl)-4-pyrazolyl]-1,4,6-triaza-7-naphthyloxy)-2-methyl-2-propanol] | 100 to 1000 nM | 1000 to 30000 nM |  |  |  |
| COC[C@@H]1C[C@H]1c1nc2c(nc1N1CCC(Oc3ccc(F)cc3F)CC1)CCN(C(C)=O)C2 [Compound 547, 1-{3-[(1R,2R)-2-(methoxymethyl)cyclopropyl]-2-[4-(2,4-difluorophenoxy)-1-piperidyl]-5,6,7,8-tetrahydro-1,4,6-triaza-6-naphthyl}-1-ethanone] |  |  |  |  | IC50 (GPR6; [3]): 1000 to 30000 nM; IC50 (GPR3; [4]): 1000 to 30000 nM |
| CC(=O)N1CCc2nc(N3CCC(Oc4cc(F)cc(F)c4)CC3)c(-c3cnn(C)c3)nc2C1 [Compound 431, 1-{2-[4-(3,5-difluorophenoxy)piperidin-1-yl]-3-(1-methyl-1H-pyrazol-4-yl)-5H,6H,7H,8H-pyrido[3,4-b]pyrazin-6-yl}ethan-1-one] |  |  | 1000 to 30000 nM | 1000 to 30000 nM |  |
| CC(C)(O)[C@@H](O)c1cc2nc(N3CCN(Cc4cc(F)ccc4F)CC3)c(-c3cnn(CF)c3)nc2cn1 (single isomer, unassigned) [Compound 725] | 100 to 1000 nM | ≥ 30000 nM |  |  |  |
| CC(C)(O)C(O)c1cc2nc(-c3cnn(C4CC4)c3)c(N3CCC(Oc4ccc(F)cc4F)CC3)nc2cn1 (single isomer, unassigned) [Compound 590] |  |  |  |  | IC50 (GPR6; [3]): < 100 nM; IC50 (GPR3; [4]): 100 to 1000 nM |
| CCn1cc(-c2nc3cnc([C@@](C)(O)C(C)(C)O)cc3nc2N2CCC(Oc3ccc(F)cc3F)CC2)cn1 (single isomer, unassigned) [Compound 736] | 100 to 1000 nM | 1000 to 30000 nM |  |  |  |
| CC(C)(O)C(O)c1cc2nc(-c3cnn(CF)c3)c(N3CCN(Cc4ccc(F)cc4F)CC3)nc2cn1 (single isomer, unassigned) [Compound 602] |  |  |  |  | IC50 (GPR6; [3]): 100 to 1000 nM; IC50 (GPR3; [4]): 100 to 1000 nM |
| CC(C)(O)[C@@](C)(O)c1cc2nc(N3CCC(Oc4ccc(F)cc4F)CC3)c(-c3cnn(C(F)F)c3)nc2cn1 (single isomer, unassigned) [Compound 656] | 100 to 1000 nM | 1000 to 30000 nM |  |  |  |
| CC(C)(O)C(O)c1cc2nc(N3CCN(Cc4ccccc4F)CC3)c(-c3cnn(CF)c3)nc2cn1 (stereo not drawn) [Compound 606, 1-{3-[1-(fluoromethyl)-4-pyrazolyl]-2-{4-[(o-fluorophenyl)methyl]-1-piperazinyl}-1,4,6-triaza-7-naphthyl}-2-methyl-1,2-propanediol] |  |  |  |  | IC50 (GPR6; [3]): 100 to 1000 nM; IC50 (GPR3; [4]): 1000 to 30000 nM |
| CNC(=O)C(C)N1CCc2nc(N3CCC(Oc4ccc(F)cc4F)CC3)c(-c3cn[nH]c3)nc2C1 (stereo not drawn) [Compound 147, 2-{2-[4-(2,4-difluorophenoxy)piperidin-1-yl]-3-(1H-pyrazol-4-yl)-5H,6H,7H,8H-pyrido[3,4-b]pyrazin-6-yl}-N-methylpropanamide] |  |  | 1000 to 30000 nM | 1000 to 30000 nM |  |
| CC(=O)N1CCc2nc(N3CC(Oc4ccc(F)cc4F)C3)c(-c3cnn(C)c3)nc2C1 [Compound 398, 1-{2-[3-(2,4-difluorophenoxy)azetidin-1-yl]-3-(1-methyl-1H-pyrazol-4-yl)-5H,6H,7H,8H-pyrido[3,4-b]pyrazin-6-yl}ethan-1-one] |  |  | 1000 to 30000 nM | 1000 to 30000 nM |  |
| CC(=O)N1CCc2nc(N3CCC(Oc4ccc(F)cc4F)CC3)c(-c3cn[nH]c3C)nc2C1 [Compound 43, 1-{2-[4-(2,4-difluorophenoxy)piperidin-1-yl]-3-(5-methyl-1H-pyrazol-4-yl)-5H,6H,7H,8H-pyrido[3,4-b]pyrazin-6-yl}ethan-1-one] |  |  |  |  | IC50 (GPR6; [5]): 100 to 1000 nM; IC50 (GPR3; [5]): 1000 to 30000 nM |
| Fc1ccc(OC2CCN(c3nc4ccncc4nc3-c3cnc[nH]3)CC2)c(F)c1 [Compound 54, 4-(2,4-difluorophenoxy)-1-[3-(1H-imidazol-5-yl)pyrido[3,4-b]pyrazin-2-yl]piperidine] |  |  |  |  | IC50 (GPR6; [5]): 1000 to 30000 nM; IC50 (GPR3; [5]): 1000 to 30000 nM |
| CC(=O)N1CCc2nc(N3CCC(Oc4ccc(F)cc4F)CC3)c(C3=CCOCC3)nc2C1 [Compound 198, 1-{2-[4-(2,4-difluorophenoxy)piperidin-1-yl]-3-(3,6-dihydro-2H-pyran-4-yl)-5H,6H,7H,8H-pyrido[3,4-b]pyrazin-6-yl}ethan-1-one] |  |  | 100 to 1000 nM | 1000 to 30000 nM |  |
| CC(=O)N1CCc2nc(N3CCC(Oc4ccc(F)cc4F)CC3)c(-c3cccc(OC4CCC4)n3)nc2C1 [Compound 30, 1-[3-(6-cyclobutoxypyridin-2-yl)-2-[4-(2,4-difluorophenoxy)piperidin-1-yl]-5H,6H,7H,8H-pyrido[3,4-b]pyrazin-6-yl]ethan-1-one] |  |  |  |  | IC50 (GPR6; [5]): 1000 to 30000 nM; IC50 (GPR3; [5]): 1000 to 30000 nM |
| CC(=O)N1CCc2nc(N3CCC(Oc4ccc(F)cc4F)CC3)c(-c3cnn(CCO)c3)nc2C1 [Compound 88, 1-{2-[4-(2,4-difluorophenoxy)piperidin-1-yl]-3-[1-(2-hydroxyethyl)-1H-pyrazol-4-yl]-5H,6H,7H,8H-pyrido[3,4-b]pyrazin-6-yl}ethan-1-one] |  |  | 1000 to 30000 nM | 1000 to 30000 nM |  |
| CC(C)(O)C(C)(O)c1cc2nc(-c3cnn(CF)c3)c(N3CCC(Oc4ccc(F)cc4F)CC3)nc2cn1 (stereo not drawn) [Compound 661, 2-{3-[4-(2,4-difluorophenoxy)-1-piperidyl]-2-[1-(fluoromethyl)-4-pyrazolyl]-1,4,6-triaza-7-naphthyl}-3-methyl-2,3-butanediol] | 100 to 1000 nM | 1000 to 30000 nM |  |  |  |
| CC(C)(O)[C@@](C)(O)c1cc2nc(N3CCN(Cc4ccc(F)cc4F)CC3)c(-c3cnn(C4CC4)c3)nc2cn1 (single isomer, unassigned) [Compound 667] | 100 to 1000 nM | 1000 to 30000 nM |  |  |  |

More lines, main results first:

| IC50 (GPR6; procedure of Example 24) | IC50 (GPR3; procedure of Example 24) | IC50 (GPR6; [1]) | IC50 (GPR3; [2]) | SMILES | also measured |
| --- | --- | --- | --- | --- | --- |
|  |  | 1000 to 30000 nM | 1000 to 30000 nM | CC(=O)N1CCc2nc(N3CCC(Oc4ccc(F)c(F)c4)CC3)c(-c3cnn(C)c3)nc2C1 [Compound 453, 1-{2-[4-(3,4-difluorophenoxy)piperidin-1-yl]-3-(1-methyl-1H-pyrazol-4-yl)-5H,6H,7H,8H-pyrido[3,4-b]pyrazin-6-yl}ethan-1-one] |  |
|  |  | 1000 to 30000 nM | 1000 to 30000 nM | Cn1cc(-c2nc3cnc(C(O)CC#N)cc3nc2N2CCC(Oc3ccc(F)cc3F)CC2)cn1 (stereo not drawn) [Compound 402, 3-(2-(4-(2,4-difluorophenoxy)piperidin-1-yl)-3-(1-methyl-1H-pyrazol-4-yl)pyrido[3,4-b]pyrazin-7-yl)-3-hydroxypropanenitrile] |  |
|  |  | 1000 to 30000 nM | 1000 to 30000 nM | COC[C@@H]1CN(Cc2ccc(F)cc2F)CCN1c1nc2ccncc2nc1-c1cnn(C)c1 (single isomer, unassigned) [Compound 240] |  |
| 100 to 1000 nM | 1000 to 30000 nM |  |  | CC(C)S(=O)(=O)N1CCc2nc(N3CCC(Oc4ccc(F)cc4F)CC3)c(-c3ccc(F)c(N)n3)nc2C1 [Compound 627, 6-{2-[4-(2,4-difluorophenoxy)-1-piperidyl]-6-(isopropylsulfonyl)-5,6,7,8-tetrahydro-1,4,6-triaza-3-naphthyl}-3-fluoro-2-pyridylamine] |  |
|  |  | 1000 to 30000 nM | 1000 to 30000 nM | CC(C)(C)OC(=O)N1CC(C(=O)N2CCc3nc(N4CCC(Oc5ccc(F)cc5F)CC4)c(-c4cnn(C5CCCCO5)c4)nc3C2)C1 (stereo not drawn) [Compound 152, tert-butyl 3-{2-[4-(2,4-difluorophenoxy)piperidin-1-yl]-3-[1-(oxan-2-yl)-1H-pyrazol-4-yl]-5H,6H,7H,8H-pyrido[3,4-b]pyrazine-6-carbonyl}azetidine-1-carboxylate] |  |
|  |  | 1000 to 30000 nM | 1000 to 30000 nM | CC(=O)N1CCc2nc(N3CCC(Oc4ccc(F)cc4F)CC3)c(-c3cnn(C4CN(C(C)=O)C4)c3)nc2C1 [Compound 163, 1-[3-(4-{6-acetyl-2-[4-(2,4-difluorophenoxy)piperidin-1-yl]-5H,6H,7H,8H-pyrido[3,4-b]pyrazin-3-yl}-1H-pyrazol-1-yl)azetidin-1-yl]ethan-1-one] |  |
|  |  | 1000 to 30000 nM | 1000 to 30000 nM | Cn1cc(-c2nc3cnc(Cl)cc3nc2N2CCN(Cc3ccc(F)cc3F)CC2)cn1 [Compound 193, 1-[7-chloro-3-(1-methyl-1H-pyrazol-4-yl)pyrido[3,4-b]pyrazin-2-yl]-4-[(2,4-difluorophenyl)methyl]piperazine] |  |
|  |  | < 100 nM | 1000 to 30000 nM | O=C(C1COC1)N1CCc2nc(N3CCC(Oc4ccc(F)cc4F)CC3)c(-c3cn[nH]c3)nc2C1 [Compound 184, 4-(2,4-difluorophenoxy)-1-[6-(oxetane-3-carbonyl)-3-(1H-pyrazol-4-yl)-5H,6H,7H,8H-pyrido[3,4-b]pyrazin-2-yl]piperidine] |  |
| < 100 nM | 1000 to 30000 nM |  |  | C=CC(=O)N1CCc2nc(N3CCC(Oc4ccc(F)cc4F)CC3)c(-c3cnn(CC)c3)nc2C1 [Compound 310, 1-{2-[4-(2,4-difluorophenoxy)piperidin-1-yl]-3-(1-ethyl-1H-pyrazol-4-yl)-5H,6H,7H,8H-pyrido[3,4-b]pyrazin-6-yl}prop-2-en-1-one] |  |
| 1000 to 30000 nM | 1000 to 30000 nM |  |  | CC(=O)N1CCc2nc(N3CCC(Oc4ccc(F)cc4)C3)c(-c3cnn(C)c3)nc2C1 (stereo not drawn) [Compound 341, 1-{2-[3-(4-fluorophenoxy)pyrrolidin-1-yl]-3-(1-methyl-1H-pyrazol-4-yl)-5H,6H,7H,8H-pyrido[3,4-b]pyrazin-6-yl}ethan-1-one] |  |
| < 100 nM | 1000 to 30000 nM |  |  | CCn1cc(-c2nc3c(nc2N2CCC(Oc4ccc(F)cc4F)CC2)CCN(C#N)C3)cn1 [Compound 274, 2-(4-(2,4-difluorophenoxy)piperidin-1-yl)-3-(1-ethyl-1H-pyrazol-4-yl)-7,8-dihydropyrido[3,4-b]pyrazine-6(5H)-carbonitrile] |  |
|  |  | 100 to 1000 nM | 1000 to 30000 nM | CC(C)OC(=O)N1CCc2nc(N3CCC(Oc4ccc(F)cc4F)CC3)c(-c3cn[nH]c3)nc2C1 [Compound 121, propan-2-yl 2-[4-(2,4-difluorophenoxy)piperidin-1-yl]-3-(1H-pyrazol-4-yl)-c5H,6H,7H,8H-pyrido[3,4-b]pyrazine-6-carboxylate] |  |
